Earlier results as cited in patent US20190358240A1, “HIV TREATMENT FORMULATION OF ATAZANAVIR AND COBICISTAT” (BRISTOL-MYERS SQUIBB COMPANY, priority 2013, published 2019).

Conditions: human, in vivo

Accumulation at steady state: 2-3 fold | Time to steady state: 4 to 8 days | Tmax: ~2.5 h
SMILES: COC(=O)N[C@H](C(=O)N[C@@H](Cc1ccccc1)[C@@H](O)CN(Cc1ccc(-c2ccccn2)cc1)NC(=O)[C@@H](NC(=O)OC)C(C)(C)C)C(C)(C)C [Atazanavir, methyl N-[(1S)-1-{[(2S,3S)-3-hydroxy-4-[(2S)-2-[(methoxycarbonyl)amino]-3,3-dimethyl-N′-{[4-(pyridin-2-yl)phenyl]methyl}butanehydrazido]-1-phenylbutan-2-yl]carbamoyl}-2,2-dimethylpropyl]carbamate]
